{"source": "patent US20240415828A1", "about": "“TLR7 AGONIST AND COMBINATIONS FOR CANCER TREATMENT” (BIONTECH SE, priority 2021, published 2024)", "key": {"[1]": {"settings": "in vivo, cited from earlier work"}, "[2]": {"system": "CT26 colon carcinoma cells", "assay": "CT26 tumor model, BNT411 alone and with oxaliplatin (Example 4)", "format": "in vivo, mouse", "settings": "BNT411 3 mg/kg i.v. eight times; oxaliplatin 5 mg/kg i.p. four times; group mean tumor volumes test vs control", "protocol": "FIG. 5. Anti-tumoral efficacy of BNT411 alone and in combination with oxaliplatin in a tumor mouse model. Mice (n=12 or 13 per group) subcutaneously inoculated with 2.5×10^5 CT26 colon carcinoma cells were used as tumor mouse model. Oxaliplatin was administered intraperitoneally (i.p.) (5 mg/kg, four times with 4 to 5 days between injections). BNT411 was administered i.v. at a dose level of 3 mg/kg eight times with 2 to 5 days interval between injections and at least 2 days after oxaliplatin therapy. Anti-tumor efficacy was evaluated by group mean tumor volumes in test versus control groups (vehicle only) on days 33 and 42 (at least 50% of test and control animals alive). IFNα levels in plasma were analyzed 1 h after first BNT411 administration and gp70+ T-cell populations in blood were analyzed on days 34 and 41. (A) Dosing schedule. (B) Graph showing the tumor volumes vs. days after inoculation. Group mean tumor volumes (±SEM (standard error of the mean)) for all live animals are shown. Treatment groups included nine to ten mice. Additionally, tumor volumes of animals that were euthanized due to tumor load were carried forward for as long as they were larger than the group median tumor volume (last observation carried forward (LOCF) values). Curves were discontinued for groups with less than 50% animals alive. (C) Graph showing IFNα serum level 60 min after first injection for the 4 groups (control (vehicle); BNT411 alone; oxaliplatin alone; BNT411 and oxaliplatin). IFNα levels in control and test groups are shown by vertical bars (±SEM), Statistical significance between groups is indicated by horizontal lines. P-value summary: ****=p≤0.0001; ***=p≤0.001; **=p≤0.01, […].\nSerum levels of IFNα were measured by sandwich ELISA (Pbl Assay Systems) according to manufacturer's instructions.\nBALB/c mice were inoculated s.c. with 2.5×10^5−5×10^5 CT26-WT into the flank, respectively. Once tumors reached palpable sizes, mice were randomly divided into treatment and control groups. Tumor volume was measured unblinded with a caliper and calculated using the formula (a×b^2)/2 (a being the largest and b being the smallest diameter of the tumor). Tumor growth was documented as mean tumor size with standard error disregarding single distant outliers. Treatment was initiated after 7-10 d with tumors having reached an average volume of about 10 mm^3. […]\nOxaliplatin was administered intraperitoneally (i.p.) (5 mg/kg, four times with 4 to 5 days between injections). […] Anti-tumor efficacy was evaluated by group mean tumor volumes in test versus control groups (vehicle only) on study days 33 and 42, (at least 50% of test and control animals alive). IFNα levels in plasma were analyzed 1 h after first BNT411 administration and gp70+ T-cell populations in blood on study days 34 and 41."}}, "data": [{"smiles": "CCc1nc2c(N)nc3ccccc3c2n1CCCCNS(C)(=O)=O", "note": "[852A]", "values": [{"measurement": "tolerability of repeat-dose regimens", "setting": "[1]", "value": "not well tolerated"}]}, {"smiles": "CC(C)Cn1cnc2c(N)nc3ccccc3c21", "note": "[imiquimod]", "values": [{"measurement": "tolerability of repeated i.v. administrations at a systemically effective IFNa-inducing dose level", "setting": "[1]; iv", "value": "dose limiting adverse reactions"}]}, {"smiles": "O=C1[O][Pt]2([NH][C@@H]3CCCC[C@H]3[NH]2)[O]C1=O", "note": "[oxaliplatin, reference compound]", "values": [{"measurement": "anti-tumor efficacy, T/C value", "setting": "[2]", "value": 50.7, "unit": "%"}]}]}
